The values below come from the supplement of paper PMC5579334.

The structures appear in SMILES notation. ± gives the standard deviation of the averaged measurements.

The term % inhibition denotes the relative decrease from the control value, in per cent.

The subject of test [1] is HS-PSS. Put plainly: drug sensitivity score (DSS, CellTiter-Glo viability, 72 h) (DSS (dimensionless)); higher = more sensitive; extreme values may be limits of the assay. The essentials: (§1)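 After seeding 750–1000 cells per well of MPNST cell lines or primary human Schwann cells into 384-well plates preprinted with each compound at five concentrations in 10-fold steps, plates were kept 72 h at 37 °C, 5% CO2. Viability was read as CellTiter-Glo ATP luminescence relative to vehicle and positive-control wells, with duplicates averaged where present. The data were fitted with four-parameter logistic models. Drug sensitivity score and relative IC50, censored at the top concentration, derive from the fits, and percent inhibition refers to the top concentration.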
For orientation: Cellular ATP, detected with luciferase, serves as a proxy for viable cell number.

For test [2], the system named is HS-Sch-2. Described as above. In short, it runs like this: as §1
For test [3], the system named is HSC1 (primary human Schwann cells). The test is described as above. In short, it runs like this:
as §1

Test [4] has as its system HSC2 (primary human Schwann cells). The test is described as above. In short, it runs like this:
as §1

The test system of test [5] is S1507-2. Described as above. In short, it runs like this:
as §1

The subject of test [6] is S462. Described as above. The essentials: as §1
The test system of test [7] is ST8814. Described as above. The essentials:
as §1

Test [8] relates to STS26T. The description is as above. In short, it runs like this:
as §1

Test [9] has as its system YST-1. The description is as above. The essentials:
as §1

For test [10], the system named is HS-PSS. Description: drug sensitivity score (DSS, CellTox-Green cytotoxicity, 72 h) (DSS (dimensionless)); higher = more cytotoxic; extreme values may be limits of the assay. In short, it runs like this:
(§2)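 For 72 h at 37 °C, MPNST cell lines and primary human Schwann cells were exposed in 384-well plates to five 10-fold compound dilutions. CellTox-Green, added before seeding at a final 1:1000 dilution, gave fluorescence from DNA released by disrupted cells. Signals were scaled to vehicle and positive-control wells, cultures failing plate quality control were left out, and four-parameter logistic fits were applied. Relative IC50 and drug sensitivity score were derived from the fits, with IC50 censored at the top concentration.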

The test system of test [11] is HSC1 (primary human Schwann cells). Described as above. The essentials:
as §2

In test [12] the test system is HSC2 (primary human Schwann cells). The description is as above. In short, it runs like this:
as §2

In test [13] the test system is S1507-2. The description is as above. The essentials:
as §2

The test system of test [14] is ST8814. The test is described as above. In short, it runs like this:
as §2

Test [15] has as its system STS26T. The description is as above. In short, it runs like this:
as §2

The subject of test [16] is HS-PSS. Description: % inhibition of CellTiter-Glo viability at highest tested concentration (72 h), relative to DMSO and benzethonium chloride controls; higher = more inhibition. In short, it runs like this:
as §1

The subject of test [17] is HS-Sch-2. The description is as above. In short, it runs like this: as §1
Test [18] deals with HSC1 (primary human Schwann cells). The test is described as above. In short, it runs like this:
as §1

The subject of test [19] is HSC2 (primary human Schwann cells). The description is as above. In short, it runs like this:
as §1

In test [20] the test system is S1507-2. The test is described as above. The essentials: as §1
For test [21], the system named is S462. The test is described as above. The essentials:
as §1

Test [22] concerns ST8814. Described as above. The essentials: as §1
Test [23] has as its system STS26T. The test is described as above. In short, it runs like this: as §1
The test system of test [24] is YST-1. Described as above. The essentials: as §1

Regarding `O=C1c2c(O)ccc(O)c2C(=O)c2c(NCCNCCO)ccc(NCCNCCO)c21` [Mitoxantrone] (max concentration tested 1000 nM), the drug sensitivity score is 1.94 in test [1]; 4.38 in [2]; 2.89 in test [3]; 5.2 in test [4]; 2.8 ± 1.2 in test [5]; 5.57 ± 0.84 in test [6]. Further, the drug sensitivity score stood at 2.63 in test [7]; 2.45 in test [8]; 10.7 in [9]; 0 in [10]; 0 in test [11]; 0 in test [12]. Also, the drug sensitivity score worked out at 0 in [13], 1.65 in test [14] and 1.34 in test [15]. In addition, the “% inhibition” value amounted to 28.8% in test [16]; 42.7% in [17]; 37.8% in test [18]; 43% in test [19]; 43.44 ± 0.12% in [20]; 72.66 ± 0.27% in test [21]. For the same compound, the “% inhibition” value in test [22] was determined as 46.7%; in test [23], 53.5%; in test [24], 77%.
As to `CC[C@H](CC#N)OC(=O)N[C@@H](C)c1cccc(NC(=O)Nc2ccc(-c3cnco3)c(OC)c2)c1` [AVN944] (max concentration tested 10000 nM), the drug sensitivity score amounted to 12.5 in test [1]; 8.71 in [2]; 18.7 in [3]; 20 in test [4]; 8.48 ± 0.44 in test [5]; 14.5 ± 1.5 in test [6]. In addition, the drug sensitivity score in test [7] turned out to be 11.4; in test [8] it was 12.2; in test [9], 16; in test [10] it was 0; in test [11], 0; in test [12], 0. Moreover, the drug sensitivity score in test [13] was 0; in [14], 7.26; in [15], 0.427. The “% inhibition” value is 69.4% in [16]; 60.8% in test [17]; 71.2% in test [18]; 76.8% in test [19]; 54.6 ± 5.9% in test [20]; 81.8 ± 2.8% in test [21]. Further, the “% inhibition” value turned out to be 78.7% in [22], 74.3% in [23] and 89.7% in [24].
For the compound `CS(=O)(=O)c1ccc(C(=O)Nc2ccc(Cl)c(-c3ccccn3)c2)c(Cl)c1` [Vismodegib] (max concentration tested 10000 nM), the drug sensitivity score in test [1] came out at 0.05; in test [2], 1.12; in [3], 0; in test [4], 0; in test [5], 0; in test [6] it was 0. Besides, the drug sensitivity score in test [7], in [8], in [9], in test [10], in test [11] and in [12] was 0 each time. Further, the drug sensitivity score in test [13], in [14] and in [15] was 0 in each case. In addition, the “% inhibition” value in test [16] was 13.9%; in test [17], 17.3%; in test [18], -4.59%; in test [19] it was -4.33%; in [20], 2.36 ± 1.7%; in [21], -4.72 ± 14%. For the same compound, the “% inhibition” value in [22] is -2.96%; in [23], 2.72%; in test [24] it was 6.14%.
For the compound `Cc1c(N)nc([C@H](CC(N)=O)NC[C@H](N)C(N)=O)nc1C(=O)N[C@H](C(=O)N[C@H](C)[C@@H](O)[C@H](C)C(=O)N[C@H](C(=O)NCCc1nc(-c2nc(C(=O)NCCC[S+](C)C)cs2)cs1)[C@@H](C)O)[C@@H](O[C@@H]1O[C@@H](CO)[C@@H](O)[C@H](O)[C@@H]1O[C@H]1O[C@H](CO)[C@@H](O)[C@H](OC(N)=O)[C@@H]1O)c1c[nH]cn1` [Bleomycin] (max concentration tested 10000 nM), the drug sensitivity score was 5.94 in [1]; 8.47 in [2]; 6.33 in test [3]; 8.81 in test [4]; 2.36 ± 0.43 in test [5]; 5 ± 1.1 in [6]. The drug sensitivity score in test [7] was 4.1; in [8], 5.46; in test [9] it was 10.9; in [10], 0.34; in test [11], 0; in [12] it was 1.66. The drug sensitivity score in test [13] was determined as 1.29 ± 0.61; in test [14] it was 2.35; in test [15], 4.43. The “% inhibition” value turned out to be 53.2% in [16]; 72.1% in test [17]; 50.4% in test [18]; 54.5% in test [19]; 29.9 ± 7.5% in [20]; 68.4 ± 1.7% in test [21]. The “% inhibition” value was found to be 46.4% in test [22], 62.1% in test [23] and 79.5% in [24].
As for `O=C1CCC(N2C(=O)c3ccccc3C2=O)C(=O)N1` (centres undefined) [Thalidomide] (max concentration tested 10000 nM), the drug sensitivity score in test [1] came to 0; in test [2], 0.45; in [3], 0; in [4], 0; in [5], 0.783 ± 1.1; in [6] it was 0. In addition, the drug sensitivity score was determined as 0.0095 in [7]; 0 in test [8]; 0 in test [9]; 0 in test [10]; 0 in [11]; 0 in [12]. In addition, the drug sensitivity score in test [13], in test [14] and in [15] was 0 throughout. Also, the “% inhibition” value is 8.04% in test [16]; 12.4% in test [17]; 1.74% in test [18]; 8.31% in test [19]; 13 ± 12% in [20]; -8.98 ± 4.2% in [21]. Also, the “% inhibition” value was 10.4% in test [22], 2.86% in [23] and 2.49% in test [24].
With `Oc1ccc2c(c1)CC[C@H](c1ccccc1)[C@@H]2c1ccc(OCCN2CCCC2)cc1` [Lasofoxifene] (max concentration tested 1000 nM), the drug sensitivity score in [1] was 1.43; in [2] it was 0; in [3] it was 0; in test [4], 0; in test [5] it was 0; in [6], 0.222 ± 0.31. For the same compound, the drug sensitivity score in [7], in test [8], in test [9], in test [10], in test [11] and in test [12] was 0 each time. Besides, the drug sensitivity score in test [13], in [14] and in test [15] was 0 each time. Moreover, the “% inhibition” value in test [16] came to 21.2%; in [17], 8.81%; in test [18] it was 17.1%; in test [19], 9.44%; in test [20], 6.44 ± 1.6%; in [21], 10.5 ± 10%. Also, the “% inhibition” value in test [22] was -2.62%; in test [23] it was 4.5%; in [24], -1.77%.
